Reference: the NIST ThermoML archive (doi:10.1016/j.jct.2017.02.022)
Numbers after ± are expanded uncertainties.

Key:
[1] = 101.3 kPa, Liquid; for speed of sound: Frequency=3 MHz, Sing-around technique in a fixed-path interferometer; for mass density: Vibrating tube method
[2] = refractive index (Na D-line) (dimensionless); details: 101.3 kPa, Liquid, Standard Abbe refractometry
[3] = molar heat capacity at constant pressure; details: 101.33 kPa, Liquid, Small sample (50 mg) DSC
[4] = xn = mol fraction of the nth substance listed; details: 101.3 kPa, Liquid, x2 = 0; for speed of sound: Frequency=3 MHz, Sing-around technique in a fixed-path interferometer; for mass density: Vibrating tube method
[5] = refractive index (Na D-line) (dimensionless); xn = mol fraction of the nth substance listed; details: 101.3 kPa, Liquid, Standard Abbe refractometry, x2 = 0

SMILES: CCCO [propan-1-ol]
- speed of sound ([1]; 298 K): 1208 ± 20 m/s
- mass density ([1]; 298 K): 800 ± 2 kg/m3
- speed of sound ([1]; 303 K): 1191 ± 20 m/s
- mass density ([1]; 303 K): 796 ± 2 kg/m3
- speed of sound ([1]; 308 K): 1174 ± 20 m/s
- mass density ([1]; 308 K): 792 ± 2 kg/m3
- speed of sound ([1]; 313 K): 1158 ± 20 m/s
- mass density ([1]; 313 K): 789 ± 2 kg/m3
- refractive index ([2]; 298 K): 1.383 ± 0.01
- refractive index ([2]; 303 K): 1.382 ± 0.01
- refractive index ([2]; 308 K): 1.38 ± 0.01
- refractive index ([2]; 313 K): 1.378 ± 0.01

SMILES: CCn1cc[n+](C)c1.COS(=O)(=O)[O-] [1-ethyl-3-methylimidazolium methylsulfate]
- speed of sound ([1]; 298 K): 1762 ± 20 m/s
- mass density ([1]; 298 K): 1292 ± 2 kg/m3
- speed of sound ([1]; 303 K): 1750 ± 20 m/s
- mass density ([1]; 303 K): 1289 ± 2 kg/m3
- speed of sound ([1]; 308 K): 1739 ± 20 m/s
- mass density ([1]; 308 K): 1285 ± 2 kg/m3
- speed of sound ([1]; 313 K): 1727 ± 20 m/s
- mass density ([1]; 313 K): 1282 ± 2 kg/m3
- molar heat capacity at constant pressure ([3]; 298 K): 313.3 ± 40 J/K/mol
- molar heat capacity at constant pressure ([3]; 303 K): 319.9 ± 40 J/K/mol
- molar heat capacity at constant pressure ([3]; 308 K): 326.6 ± 40 J/K/mol
- molar heat capacity at constant pressure ([3]; 313 K): 333.2 ± 40 J/K/mol
- refractive index ([2]; 298 K): 1.48 ± 0.01
- refractive index ([2]; 303 K): 1.479 ± 0.01
- refractive index ([2]; 308 K): 1.478 ± 0.01
- refractive index ([2]; 313 K): 1.476 ± 0.01

SMILES: CCCO [propan-1-ol] + COS(=O)(=O)[O-].Cn1cc[n+](C)c1
- speed of sound ([4]; 298 K): 1208 ± 20 m/s
- mass density ([4]; 298 K): 800 ± 2 kg/m3
- speed of sound ([4]; 303 K): 1191 ± 20 m/s
- mass density ([4]; 303 K): 796 ± 2 kg/m3
- speed of sound ([4]; 308 K): 1174 ± 20 m/s
- mass density ([4]; 308 K): 792 ± 2 kg/m3
- speed of sound ([4]; 313 K): 1158 ± 20 m/s
- mass density ([4]; 313 K): 789 ± 2 kg/m3
- refractive index ([5]; 298 K): 1.383 ± 0.01
- refractive index ([5]; 303 K): 1.382 ± 0.01
- refractive index ([5]; 308 K): 1.38 ± 0.01
- refractive index ([5]; 313 K): 1.378 ± 0.01

SMILES: COS(=O)(=O)[O-].Cn1cc[n+](C)c1 [1,3-dimethylimidazolium methylsulfate]
- speed of sound ([1]; 298 K): 1811 ± 20 m/s
- mass density ([1]; 298 K): 1329 ± 4 kg/m3
- speed of sound ([1]; 303 K): 1799 ± 20 m/s
- mass density ([1]; 303 K): 1322 ± 4 kg/m3
- speed of sound ([1]; 308 K): 1787 ± 20 m/s
- mass density ([1]; 308 K): 1319 ± 4 kg/m3
- speed of sound ([1]; 313 K): 1775 ± 20 m/s
- mass density ([1]; 313 K): 1315 ± 4 kg/m3
- molar heat capacity at constant pressure ([3]; 298 K): 298.1 ± 40 J/K/mol
- molar heat capacity at constant pressure ([3]; 303 K): 303.1 ± 40 J/K/mol
- molar heat capacity at constant pressure ([3]; 308 K): 308 ± 40 J/K/mol
- molar heat capacity at constant pressure ([3]; 313 K): 312.9 ± 40 J/K/mol
- refractive index ([2]; 298 K): 1.483 ± 0.01
- refractive index ([2]; 303 K): 1.481 ± 0.01
- refractive index ([2]; 308 K): 1.48 ± 0.01
- refractive index ([2]; 313 K): 1.479 ± 0.01

SMILES: CCCCO [butan-1-ol] + CCn1cc[n+](C)c1.COS(=O)(=O)[O-]
- speed of sound ([4]; 298 K): 1240 ± 20 m/s
- mass density ([4]; 298 K): 806 ± 2 kg/m3
- speed of sound ([4]; 303 K): 1224 ± 20 m/s
- mass density ([4]; 303 K): 802 ± 2 kg/m3
- speed of sound ([4]; 308 K): 1206 ± 20 m/s
- mass density ([4]; 308 K): 798 ± 2 kg/m3
- speed of sound ([4]; 313 K): 1190 ± 20 m/s
- mass density ([4]; 313 K): 794 ± 2 kg/m3
- refractive index ([5]; 298 K): 1.397 ± 0.01
- refractive index ([5]; 303 K): 1.395 ± 0.01
- refractive index ([5]; 308 K): 1.392 ± 0.01
- refractive index ([5]; 313 K): 1.389 ± 0.01

SMILES: CCCCCO [pentan-1-ol] + CCn1cc[n+](C)c1.COS(=O)(=O)[O-]
- speed of sound ([4]; 298 K): 1276 ± 20 m/s
- mass density ([4]; 298 K): 811 ± 2 kg/m3
- speed of sound ([4]; 303 K): 1259 ± 20 m/s
- mass density ([4]; 303 K): 807 ± 2 kg/m3
- speed of sound ([4]; 308 K): 1242 ± 20 m/s
- mass density ([4]; 308 K): 803 ± 2 kg/m3
- speed of sound ([4]; 313 K): 1226 ± 20 m/s
- mass density ([4]; 313 K): 800 ± 2 kg/m3
- refractive index ([5]; 298 K): 1.408 ± 0.01
- refractive index ([5]; 303 K): 1.407 ± 0.01
- refractive index ([5]; 308 K): 1.406 ± 0.01
- refractive index ([5]; 313 K): 1.404 ± 0.01

SMILES: CCCCO [butan-1-ol]
- speed of sound ([1]; 298 K): 1240 ± 20 m/s
- mass density ([1]; 298 K): 806 ± 2 kg/m3
- speed of sound ([1]; 303 K): 1224 ± 20 m/s
- mass density ([1]; 303 K): 802 ± 2 kg/m3
- speed of sound ([1]; 308 K): 1206 ± 20 m/s
- mass density ([1]; 308 K): 798 ± 2 kg/m3
- speed of sound ([1]; 313 K): 1190 ± 20 m/s
- mass density ([1]; 313 K): 794 ± 2 kg/m3
- refractive index ([2]; 298 K): 1.397 ± 0.01
- refractive index ([2]; 303 K): 1.395 ± 0.01
- refractive index ([2]; 308 K): 1.392 ± 0.01
- refractive index ([2]; 313 K): 1.389 ± 0.01

SMILES: CCCCO [butan-1-ol] + COS(=O)(=O)[O-].Cn1cc[n+](C)c1
- speed of sound ([4]; 298 K): 1240 ± 20 m/s
- mass density ([4]; 298 K): 806 ± 2 kg/m3
- speed of sound ([4]; 303 K): 1224 ± 20 m/s
- mass density ([4]; 303 K): 802 ± 2 kg/m3
- speed of sound ([4]; 308 K): 1206 ± 20 m/s
- mass density ([4]; 308 K): 798 ± 2 kg/m3
- speed of sound ([4]; 313 K): 1190 ± 20 m/s
- mass density ([4]; 313 K): 794 ± 2 kg/m3
- refractive index ([5]; 298 K): 1.397 ± 0.01
- refractive index ([5]; 303 K): 1.395 ± 0.01
- refractive index ([5]; 308 K): 1.392 ± 0.01
- refractive index ([5]; 313 K): 1.389 ± 0.01

SMILES: CCCO [propan-1-ol] + CCn1cc[n+](C)c1.COS(=O)(=O)[O-]
- speed of sound ([4]; 298 K): 1208 ± 20 m/s
- mass density ([4]; 298 K): 800 ± 2 kg/m3
- speed of sound ([4]; 303 K): 1191 ± 20 m/s
- mass density ([4]; 303 K): 796 ± 2 kg/m3
- speed of sound ([4]; 308 K): 1174 ± 20 m/s
- mass density ([4]; 308 K): 792 ± 2 kg/m3
- speed of sound ([4]; 313 K): 1158 ± 20 m/s
- mass density ([4]; 313 K): 789 ± 2 kg/m3
- refractive index ([5]; 298 K): 1.383 ± 0.01
- refractive index ([5]; 303 K): 1.382 ± 0.01
- refractive index ([5]; 308 K): 1.38 ± 0.01
- refractive index ([5]; 313 K): 1.378 ± 0.01

SMILES: CCCCCO [pentan-1-ol]
- speed of sound ([1]; 298 K): 1276 ± 20 m/s
- mass density ([1]; 298 K): 811 ± 2 kg/m3
- speed of sound ([1]; 303 K): 1259 ± 20 m/s
- mass density ([1]; 303 K): 807 ± 2 kg/m3
- speed of sound ([1]; 308 K): 1242 ± 20 m/s
- mass density ([1]; 308 K): 803 ± 2 kg/m3
- speed of sound ([1]; 313 K): 1226 ± 20 m/s
- mass density ([1]; 313 K): 800 ± 2 kg/m3
- refractive index ([2]; 298 K): 1.408 ± 0.01
- refractive index ([2]; 303 K): 1.407 ± 0.01
- refractive index ([2]; 308 K): 1.406 ± 0.01
- refractive index ([2]; 313 K): 1.404 ± 0.01

SMILES: CCCCCO [pentan-1-ol] + COS(=O)(=O)[O-].Cn1cc[n+](C)c1
- speed of sound ([4]; 298 K): 1276 ± 20 m/s
- mass density ([4]; 298 K): 811 ± 2 kg/m3
- speed of sound ([4]; 303 K): 1259 ± 20 m/s
- mass density ([4]; 303 K): 807 ± 2 kg/m3
- speed of sound ([4]; 308 K): 1242 ± 20 m/s
- mass density ([4]; 308 K): 803 ± 2 kg/m3
- speed of sound ([4]; 313 K): 1226 ± 20 m/s
- mass density ([4]; 313 K): 800 ± 2 kg/m3
- refractive index ([5]; 298 K): 1.408 ± 0.01
- refractive index ([5]; 303 K): 1.407 ± 0.01
- refractive index ([5]; 308 K): 1.406 ± 0.01
- refractive index ([5]; 313 K): 1.404 ± 0.01
